According to US20050182025A1, “Amidinylphenyl compounds and their use as fungicides” (priority 2002, published 2005):

What was measured:
Format in all cases: in vivo
Puccinia recondita = assay: Test B: preventive spray on wheat seedlings, wheat leaf rust, disease rating; settings: wheat seedlings sprayed to run-off, inoculated the following day with Puccinia recondita, 24 h saturated atmosphere then 6 days at 20° C.; test concentration not given
From the text: (§1) General protocol for preparing test suspensions: Test compounds were first dissolved in acetone in an amount equal to 3% of the final volume and then suspended at the desired concentration (in ppm) in acetone and purified water (50/50 mix) containing 250 ppm of the surfactant Trem® 014 (polyhydric alcohol esters). The resulting test suspensions were then used in the following tests. Spraying a 200 ppm test suspension to the point of run-off on the test plants was the equivalent of a rate of 500 g/ha. The test suspension was sprayed to the point of run-off on wheat seedlings. The following day the seedlings were inoculated with a spore suspension of Puccinia recondita (the causal agent of wheat leaf rust) and incubated in a saturated atmosphere at 20° C. for 24 h, and then moved to a growth chamber at 20° C. for 6 days, after which disease ratings were made. Results for Tests A-C are given in Table A. In the table, a rating of 100 indicates 100% disease control and a rating of 0 indicates no disease control (relative to the controls). A dash (-) indicates no test results.

[1] = test system: Erysiphe graminis f. sp. tritici; assay: Test A: preventive spray on wheat seedlings, wheat powdery mildew, disease rating; settings: wheat seedlings sprayed to run-off, inoculated the following day with Erysiphe graminis f. sp. tritici, rated after 7 days at 20° C.; test concentration not given
From the text: as §1, with “spore dust” for “spore suspension”, “of Erysiphe graminis f. sp. tritici,” for “of Puccinia recondita”, “wheat powdery mildew)” for “wheat leaf rust)”, “in” for “in a saturated atmosphere at 20° C. for 24 h, and then moved to”, “for 7” for “for 6”

Septoria nodorum = assay: Test C: preventive spray on wheat seedlings, Septoria glume blotch, disease rating; settings: wheat seedlings sprayed to run-off, inoculated the following day with Septoria nodorum, 48 h saturated atmosphere then 9 days at 20° C.; test concentration not given
From the text: as §1, with “Septoria nodorum” for “Puccinia recondita”, “Septoria glume blotch)” for “wheat leaf rust)”, “48” for “24”, “9” for “6”

Row | Compound | Test B disease control rating (100 = 100% disease control, 0 = no disease control relative to the controls) (Puccinia recondita) [%] | Test A disease control rating (100 = 100% disease control, 0 = no disease control relative to the controls) [1] [%] | Test C disease control rating (100 = 100% disease control, 0 = no disease control relative to the controls) (Septoria nodorum) [%]
1 | Cc1cc(OCCC[Si](C)(C)C)c(Cl)cc1N=CN1CCCC1 [Compound 95] | 100 | 100 | 100
2 | Cc1cc(OCCCC(C)(C)C)c(C)cc1N=CN(C)C [Compound 50] | 67 | 99 | 100
3 | CCN(CC)C(=S)Nc1cc(Cl)c(OCCC[Si](C)(C)C)cc1Cl [compound 185] | 98 | 99 | 63
4 | Cc1cc(OCCCC(C)C)c(C)cc1N=CN(C)C [compound 132] | 100 | 98 | 97
5 | CCN(C)C(=S)Nc1cc(C)c(OCCC[Si](C)(C)C)c(Cl)c1C [compound 134] | 100 | 100 | 81
6 | CC(C)=CCC[C@H](C)CCOc1cc(C)c(N=CN(C)C)cc1C [Compound 14] | 100 | 90 | 0
7 | Cc1cc(NC(=S)N(C)C)c(C)c(Cl)c1OCCC[Si](C)(C)C [compound 133] | 85 | 99 | 53
8 | CCCC(CCC)Oc1cc(C)c(N=C(C)N(C)C)cc1C [compound 101] | 100 | 100 | 100
9 | Cc1cc(OCCC[Si](C)(C)C)c(C(C)C)cc1N=CN(C)C(C)C [compound 74] | 100 | 100 | 100
10 | Cc1cc(NC(CCC(C)C)CCC(C)C)c(C)cc1N=CN(C)C [compound 151] | 0 | 0 | 60
11 | C=CCN(C)C(=S)Nc1cc(C)c(OCCC[Si](C)(C)C)cc1C [compound 86] | 99 | 100 | 100
12 | Cc1cc(OCCCCCl)c(C)cc1N=CN(C)C [Compound 16] | 100 | 88 | 97
13 | CCC(CC)Oc1cc(C)c(N=CN(C)C)cc1C [Compound 34] | 100 | 96 | 0
14 | CCN(C)C(=S)Nc1cc(Cl)c(OCCC[Si](C)(C)C)c(Cl)c1C [compound 181] | 100 | 100 | 67
15 | CCN(C)C(=S)Nc1cc(Cl)c(OCCC[Si](C)(C)C)cc1C [compound 169] | 100 | 99 | 100
16 | CCN(C)C(=S)Nc1cc(Cl)c(OCCCC(C)(C)C)c(Cl)c1C [compound 122] | 100 | 99 | 0
17 | CCN(CC)C(=S)Nc1cc(Cl)c(OCCC[Si](C)(C)C)cc1C [compound 170] | 100 | 99 | 99
18 | CC[Si](C)(C)CCCOc1cc(C)c(N=CN(C)C)cc1C [Compound 51] | 100 | 96 | 100
19 | CCN(C)C=Nc1cc(Cl)c(OCCC[Si](C)(C)C)c(Cl)c1C [compound 182] | 79 | 98 | 67
20 | CCCC(CCC(C)C)Oc1cc(C)c(N=C(C)N(C)C)cc1C (stereo not drawn) [compound 97] | 45 | 0 | 85
21 | CCN(C)C=Nc1cc(Cl)c(OC(C)CCC(C)C)cc1C (stereo not drawn) [compound 198] | 100 | 100 | 100
22 | Cc1cc(NCCC(C)CC(C)(C)C)c(C)cc1N=CN(C)C (stereo not drawn) [compound 147] | 0 | 0 | 53
23 | CCN(CC)C(=S)Nc1cc(Cl)c(OCCCC(C)(C)C)cc1Cl [compound 188] | 79 | 100 | 90
24 | CC(=Nc1cc(Cl)c(OCCCC(C)C)cc1C)N(C)C [compound 111] | 100 | 99 | 100
25 | CCCN(C)C=Nc1cc(C(C)C)c(OCCC[Si](C)(C)C)cc1C [compound 75] | 100 | 100 | 100
26 | CCN(C)C(=S)Nc1cc(Cl)c(OCCCC(C)C)cc1Cl [compound 124] | 98 | 98 | 100
27 | CCN(C)C(=S)Nc1cc(C)c(OCCCC(C)C)cc1C [compound 106] | 100 | 100 | 100
